Laboratory results reported in ChEMBL document CHEMBL5230084, “Indole-based derivatives as potential antibacterial activity against methicillin-resistance Staphylococcus aureus (MRSA)” (Eur J Med Chem, 2020).
≈ marks a conversion by molar mass, not a printed value.

Legend:
[1] = system: Staphylococcus aureus; experiment: Antibacterial activity against methicillin-resistant Staphylococcus aureus; format: functional
[2] = Cytotoxicity against human PC-3 cells assessed as inhibition of cell growth; format: toxicity, cell-based
[3] = Cytotoxicity against human A549 cells assessed as inhibition of cell growth; format: toxicity, cell-based
[4] = Cytotoxicity against human HeLa cells assessed as inhibition of cell growth; format: toxicity, cell-based
[5] = Inhibition of methicillin-resistant Staphylococcus aureus pyruvate kinase
[6] = system: Staphylococcus aureus; experiment: Antibacterial activity methicillin-resistant Staphylococcus aureus B-10732 assessed as inhibition of bacterial growth incubated for 16 to 24 hrs by broth microdilution assay; format: functional; conditions: time 16-24 hrs
[7] = system: Staphylococcus aureus; experiment: Antibacterial activity methicillin-resistant Staphylococcus aureus P-6642 assessed as inhibition of bacterial growth incubated for 16 to 24 hrs by broth microdilution assay; format: functional; conditions: time 16-24 hrs
[8] = system: Staphylococcus aureus; experiment: Antibacterial activity methicillin-resistant Staphylococcus aureus ST-1745 assessed as inhibition of bacterial growth incubated for 16 to 24 hrs by broth microdilution assay; format: functional; conditions: time 16-24 hrs
[9] = system: Staphylococcus aureus; experiment: Antibacterial activity methicillin-resistant Staphylococcus aureus ST-3151 assessed as inhibition of bacterial growth incubated for 16 to 24 hrs by broth microdilution assay; format: functional; conditions: time 16-24 hrs
[10] = system: Staphylococcus aureus; experiment: Antibacterial activity methicillin-resistant Staphylococcus aureus ST-2438 assessed as inhibition of bacterial growth incubated for 16 to 24 hrs by broth microdilution assay; format: functional; conditions: time 16-24 hrs
[11] = system: Staphylococcus aureus; experiment: Antibacterial activity methicillin-resistant Staphylococcus aureus P-8029 assessed as inhibition of bacterial growth incubated for 16 to 24 hrs by broth microdilution assay; format: functional; conditions: time 16-24 hrs
[12] = system: Staphylococcus aureus; experiment: Antibacterial activity methicillin-resistant Staphylococcus aureus B-10760 assessed as inhibition of bacterial growth incubated for 16 to 24 hrs by broth microdilution assay; format: functional; conditions: time 16-24 hrs
[13] = system: Staphylococcus aureus; experiment: Antibacterial activity methicillin-resistant Staphylococcus aureus ST-5457 assessed as inhibition of bacterial growth incubated for 16 to 24 hrs by broth microdilution assay; format: functional; conditions: time 16-24 hrs
[14] = system: Staphylococcus aureus; experiment: Antibacterial activity methicillin-resistant Staphylococcus aureus MTCC-96 assessed as inhibition of bacterial growth incubated for 16 to 24 hrs by broth microdilution assay; format: functional; conditions: time 16-24 hrs
[15] = system: Staphylococcus aureus; experiment: Antibacterial activity methicillin-resistant Staphylococcus aureus ST-10342 assessed as inhibition of bacterial growth incubated for 16 to 24 hrs by broth microdilution assay; format: functional; conditions: time 16-24 hrs
[16] = system: Staphylococcus aureus; experiment: Antibacterial activity methicillin-resistant Staphylococcus aureus ST-2071 assessed as inhibition of bacterial growth incubated for 16 to 24 hrs by broth microdilution assay; format: functional; conditions: time 16-24 hrs
[17] = system: Staphylococcus aureus; experiment: Antibacterial activity against Staphylococcus aureus assessed as inhibition of bacterial growth; format: functional
[18] = system: Staphylococcus aureus; experiment: Antibacterial activity against methicillin-resistant Staphylococcus aureus 11 assessed as inhibition of bacterial growth; format: functional
[19] = system: Staphylococcus aureus; experiment: Antibacterial activity against methicillin-resistant Staphylococcus aureus 4 assessed as inhibition of bacterial growth; format: functional
[20] = system: Staphylococcus aureus; experiment: Antibacterial activity against methicillin-resistant Staphylococcus aureus 6 assessed as inhibition of bacterial growth; format: functional
[21] = system: Staphylococcus aureus; experiment: Antibacterial activity against methicillin-resistant Staphylococcus aureus 8 assessed as inhibition of bacterial growth; format: functional
[22] = system: Staphylococcus aureus; experiment: Antibacterial activity against methicillin-resistant Staphylococcus aureus 3 assessed as inhibition of bacterial growth; format: functional
[23] = system: Staphylococcus aureus; experiment: Antibacterial activity against methicillin-resistant Staphylococcus aureus 9 assessed as inhibition of bacterial growth; format: functional
[24] = system: Staphylococcus aureus; experiment: Antibacterial activity against methicillin-resistant Staphylococcus aureus 12 assessed as inhibition of bacterial growth; format: functional
[25] = system: Staphylococcus aureus; experiment: Antibacterial activity against methicillin-resistant Staphylococcus aureus 252 assessed as inhibition of bacterial growth; format: functional
[26] = system: Staphylococcus aureus; experiment: Antibacterial activity against Staphylococcus aureus ATCC 25923 assessed as inhibition of bacterial growth by agar well diffusion method; format: functional
[27] = Cytotoxicity against human HepG2 cells assessed as inhibition of cell growth; format: toxicity, cell-based
[28] = Cytotoxicity against human MKN-28 cells assessed as inhibition of cell growth; format: toxicity, cell-based
[29] = Cytotoxicity against human HKC-8 cells assessed as inhibition of cell growth; format: toxicity, cell-based

## Nc1nnc(Cc2c[nH]c3ccccc23)s1
[1]
  MIC: 3.12 µg/mL (≈ 13.6 µM)

## Fc1ccc(C(c2c[nH]c3ccc(Br)cc23)c2c[nH]c3ccc(Br)cc23)cc1
[1]
  MIC: 1 µg/mL (≈ 2.01 µM)

## Clc1ccc(C(c2c[nH]c3ccc(Br)cc23)c2c[nH]c3ccc(Br)cc23)cc1
[1]
  MIC: 1 µg/mL (≈ 1.94 µM)

## O=[N+]([O-])c1ccc(C(c2c[nH]c3ccc(Br)cc23)c2c[nH]c3ccc(Br)cc23)cc1
[2]
  IC50: 3900 nM
[3]
  IC50: 4500 nM
[1]
  MIC: 1 µg/mL (≈ 1.9 µM)
[4]
  IC50: 2700 nM

## Oc1ccc(C(c2c[nH]c3ccc(Br)cc23)c2c[nH]c3ccc(Br)cc23)cc1
[1]
  MIC: 1 µg/mL (≈ 2.02 µM)

## Oc1cccc(C(c2c[nH]c3ccc(Br)cc23)c2c[nH]c3ccc(Br)cc23)c1
[1]
  MIC: 1 µg/mL (≈ 2.02 µM)

## Clc1ccc2c(Cl)cc(-c3c[nH]c4ccc(Br)cc34)nc2c1
[1]
  MIC: < 1 µg/mL

## OCc1cc(-c2c[nH]c3ccc(Br)cc23)nc2cc(Cl)ccc12
[1]
  MIC: < 1 µg/mL

## Clc1ccc2nc(-c3c[nH]c4ccc(Cl)cc34)ccc2c1
[1]
  MIC: 0.62 µg/mL (≈ 1.98 µM)

## O=C1NC[C@@H](c2c[nH]c3cc(Br)ccc23)N[C@H]1c1c[nH]c2ccccc12
[5]
  IC50: 16 nM

## CCn1cc(Br)c2c3c(-c4ccc(Cl)cc4)onc3ccc21
[1]
  MIC: 4.3 µg/mL (≈ 11.4 µM)

## O=C(/C=C/c1c[nH]c2ccccc12)c1cccc(OCc2ccccc2)c1
[6]
  MIC: 12.5 µg/mL (≈ 35.4 µM)
[7]
  MIC: 12.5 µg/mL (≈ 35.4 µM)
[8]
  MIC: 12.5 µg/mL (≈ 35.4 µM)
[9]
  MIC: 12.5 µg/mL (≈ 35.4 µM)
[10]
  MIC: 12.5 µg/mL (≈ 35.4 µM)
[11]
  MIC: 12.5 µg/mL (≈ 35.4 µM)
[12]
  MIC: 12.5 µg/mL (≈ 35.4 µM)
[13]
  MIC: 12.5 µg/mL (≈ 35.4 µM)
[14]
  MIC: 12.5 µg/mL (≈ 35.4 µM)
[15]
  MIC: 12.5 µg/mL (≈ 35.4 µM)
[16]
  MIC: 12.5 µg/mL (≈ 35.4 µM)

## O=C(C1=N[C@H](c2c[nH]c3cc(Br)ccc23)CN1)c1c[nH]c2cc(O)ccc12
[5]
  IC50: 16 nM

## O=C(c1ccc(F)cc1)C1C(c2ccc(Br)cc2)CNC12C(=O)Nc1ccccc12 (stereo unspecified)
[17]
  MIC: 40 µg/mL (≈ 86 µM)

## Brc1ccc2[nH]cc(C3Nc4ccc(I)cc4[C@H]4OCO[C@@H]34)c2c1 (stereo partly specified)
[1]
  MIC: 0.31 µg/mL (≈ 0.624 µM)

## Cc1ccc(C(=O)CC2C[C@H](n3c(-c4cc5ccccc5n4S(=O)(=O)c4ccc(C)cc4)c(CC(=O)OCc4ccccc4)c4ccccc43)O[C@@H]2COC(=O)c2ccc(C)cc2)cc1 (stereo partly specified)
[18]
  MIC: 3 µg/mL (≈ 3.39 µM)
[19]
  MIC: 3 µg/mL (≈ 3.39 µM)
[20]
  MIC: 3 µg/mL (≈ 3.39 µM)
[21]
  MIC: 3 µg/mL (≈ 3.39 µM)
[22]
  MIC: 3 µg/mL (≈ 3.39 µM)
[23]
  MIC: 3 µg/mL (≈ 3.39 µM)
[24]
  MIC: 3 µg/mL (≈ 3.39 µM)

## O=C(NCC(NC(=O)C(=O)c1c[nH]c2ccc(Br)cc12)c1c[nH]c2ccc(Br)cc12)OC(F)(F)F (stereo unspecified)
[25]
  MIC: 1 µg/mL (≈ 1.62 µM)

## Cc1ccc(-c2onc3ccc4c(c(Br)cn4C(C)(C)C)c23)cc1
[1]
  MIC: 4.3 µg/mL (≈ 11.2 µM)

## CCCNc1nnc(Cc2c[nH]c3ccccc23)s1
[1]
  MIC: 6.25 µg/mL (≈ 22.9 µM)

## COc1ccc(C2C([N+](=O)[O-])C(c3ccccc3)NC23C(=O)N(Cc2ccccc2)c2ccccc23)cc1 (stereo unspecified)
[26]
  MIC: 5 µg/mL (≈ 9.89 µM)

## c1ccc2c(-c3c[nH]c4ccccc34)c3c(nc2c1)[nH]c1ccccc13
[1]
  MIC: 1 µg/mL (≈ 3 µM)

## COC(=O)c1ccc(-c2ccc3c(c2)c(/C=N/NC(=N)N)cn3S(=O)(=O)c2ccccc2)cc1
[1]
  MIC: 3.13 µg/mL (≈ 6.58 µM)

## CCCCn1cc(Br)c2c3c(-c4ccc(C)cc4)onc3ccc21
[1]
  MIC: 4.3 µg/mL (≈ 11.2 µM)

## CCCCn1cc(Br)c2c3c(-c4ccc(Cl)cc4)onc3ccc21
[1]
  MIC: 5 µg/mL (≈ 12.4 µM)

## O=C(C1=N[C@H](c2c[nH]c3cc(Br)ccc23)CN1)c1c[nH]c2ccccc12
[5]
  IC50: 16 nM

## S=C=NCCn1ccc2ccccc21
[1]
  MIC: 8 µg/mL (≈ 39.5 µM)
[27]
  IC50: 2 µg/mL (≈ 9.89 µM)
[28]
  IC50: 2 µg/mL (≈ 9.89 µM)
[29]
  IC50: 2 µg/mL (≈ 9.89 µM)

## N=C(N)N/N=C/c1cn(S(=O)(=O)c2ccccc2)c2ccc(-c3ccc(OC(F)(F)F)cc3)cc12
[1]
  MIC: 3.13 µg/mL (≈ 6.24 µM)

## CCCn1cc(Br)c2c3c(-c4ccc(OC)cc4)occ3ccc21
[1]
  MIC: 1.4 µg/mL (≈ 3.64 µM)

## CC(=O)/C(=C\c1cn(CC(=O)N2CCCCC2)c2ccccc12)n1c([N+](=O)[O-])cnc1C
[1]
  MIC: 1 µg/mL (≈ 2.3 µM)
